{"source": "ChEMBL document CHEMBL1133136", "about": "“A high-throughput screening utilizing intramolecular fluorescence resonance energy transfer for the discovery of the molecules that bind HIV-1 TAR RNA specifically” (Bioorg Med Chem Lett, 2000)", "note": "Residues, ends and D or L forms follow the SMILES beside them.", "data": [{"biological_target": "Nucleic Acid", "assay": "(§1) Dissociation constant with HIV-1 trans activation responsive element of mRNA was determined", "type": "nucleic-acid assay, Human immunodeficiency virus 1", "conditions": "not given", "values": [{"compound": "C[C@H](N)C(=O)N[C@@H](C)C(=O)N[C@@H](C)C(=O)N[C@@H](C)C(=O)N[C@@H](C)C(=O)N[C@@H](CCCN=C(N)N)C(=O)N[C@@H](CCCN=C(N)N)C(=O)N[C@@H](C)C(=O)N[C@@H](CCCN=C(N)N)C(=O)N[C@@H](CCCN=C(N)N)C(=O)N[C@@H](C)C(=O)N[C@@H](C)C(=O)N[C@@H](C)C(=O)N[C@@H](C)C(=O)N[C@@H](C)C(=O)N[C@@H](C)C(=O)O", "note": "(H-AAAAARRARRAAAAAA-OH)", "Kd": "No binding"}, {"compound": "C[C@H](N)C(=O)N[C@@H](C)C(=O)N[C@@H](C)C(=O)N[C@@H](C)C(=O)N[C@@H](C)C(=O)N[C@@H](CCCN=C(N)N)C(=O)N[C@@H](CCCN=C(N)N)C(=O)N[C@@H](C)C(=O)N[C@@H](CCCN=C(N)N)C(=O)N[C@@H](C)C(=O)N[C@@H](C)C(=O)N[C@@H](C)C(=O)N[C@@H](C)C(=O)N[C@@H](C)C(=O)N[C@@H](C)C(=O)N[C@@H](C)C(=O)O", "note": "(H-AAAAARRARAAAAAAA-OH)", "Kd": "No binding"}]}, {"biological_target": "Nucleic Acid", "assay": "as §1", "type": "nucleic-acid assay, Human immunodeficiency virus 1", "conditions": "read-out: Kd", "units": {"Kd": "nM"}, "values": [{"compound": "C[C@H](N)C(=O)N[C@@H](C)C(=O)N[C@@H](C)C(=O)N[C@@H](CCCN=C(N)N)C(=O)N[C@@H](CCCCN)C(=O)N[C@@H](CCCCN)C(=O)N[C@@H](CCCN=C(N)N)C(=O)N[C@@H](CCCN=C(N)N)C(=O)N[C@@H](CCC(N)=O)C(=O)N[C@@H](CCCN=C(N)N)C(=O)N[C@@H](CCCN=C(N)N)C(=O)N[C@@H](CCCN=C(N)N)C(=O)N[C@@H](C)C(=O)N[C@@H](C)C(=O)N[C@@H](C)C(=O)O", "note": "(H-AAARKKRRQRRRAAA-OH)", "Kd": 70}, {"compound": "C[C@H](N)C(=O)N[C@@H](C)C(=O)N[C@@H](C)C(=O)N[C@@H](C)C(=O)N[C@@H](C)C(=O)N[C@@H](CCCN=C(N)N)C(=O)N[C@@H](CCCN=C(N)N)C(=O)N[C@@H](CCCN=C(N)N)C(=O)N[C@@H](CCCN=C(N)N)C(=O)N[C@@H](CCCN=C(N)N)C(=O)N[C@@H](C)C(=O)N[C@@H](C)C(=O)N[C@@H](C)C(=O)N[C@@H](C)C(=O)N[C@@H](C)C(=O)N[C@@H](C)C(=O)O", "note": "(H-AAAAARRRRRAAAAAA-OH)", "Kd": 66000}, {"compound": "C[C@H](N)C(=O)N[C@@H](C)C(=O)N[C@@H](C)C(=O)N[C@@H](CCCN=C(N)N)C(=O)N[C@@H](CCCCN)C(=O)N[C@@H](CCCCN)C(=O)N[C@@H](CCCN=C(N)N)C(=O)N[C@@H](CCCN=C(N)N)C(=O)N[C@@H](C)C(=O)N[C@@H](CCCN=C(N)N)C(=O)N[C@@H](CCCN=C(N)N)C(=O)N[C@@H](CCCN=C(N)N)C(=O)N[C@@H](C)C(=O)N[C@@H](C)C(=O)N[C@@H](C)C(=O)O", "note": "(H-AAARKKRRARRRAAA-OH)", "Kd": 80}, {"compound": "C[C@H](N)C(=O)N[C@@H](C)C(=O)N[C@@H](C)C(=O)N[C@@H](CCCN=C(N)N)C(=O)N[C@@H](C)C(=O)N[C@@H](C)C(=O)N[C@@H](CCCN=C(N)N)C(=O)N[C@@H](CCCN=C(N)N)C(=O)N[C@@H](C)C(=O)N[C@@H](CCCN=C(N)N)C(=O)N[C@@H](CCCN=C(N)N)C(=O)N[C@@H](CCCN=C(N)N)C(=O)N[C@@H](C)C(=O)N[C@@H](C)C(=O)N[C@@H](C)C(=O)O", "note": "(H-AAARAARRARRRAAA-OH)", "Kd": 2900}, {"compound": "C[C@H](N)C(=O)N[C@@H](C)C(=O)N[C@@H](C)C(=O)N[C@@H](C)C(=O)N[C@@H](CCCCN)C(=O)N[C@@H](CCCCN)C(=O)N[C@@H](CCCN=C(N)N)C(=O)N[C@@H](CCCN=C(N)N)C(=O)N[C@@H](C)C(=O)N[C@@H](CCCN=C(N)N)C(=O)N[C@@H](CCCN=C(N)N)C(=O)N[C@@H](CCCN=C(N)N)C(=O)N[C@@H](C)C(=O)N[C@@H](C)C(=O)N[C@@H](C)C(=O)O", "note": "(H-AAAAKKRRARRRAAA-OH)", "Kd": 170}, {"compound": "C[C@H](N)C(=O)N[C@@H](C)C(=O)N[C@@H](C)C(=O)N[C@@H](C)C(=O)N[C@@H](C)C(=O)N[C@@H](CCCN=C(N)N)C(=O)N[C@@H](CCCN=C(N)N)C(=O)N[C@@H](C)C(=O)N[C@@H](CCCN=C(N)N)C(=O)N[C@@H](CCCN=C(N)N)C(=O)N[C@@H](CCCN=C(N)N)C(=O)N[C@@H](C)C(=O)N[C@@H](C)C(=O)N[C@@H](C)C(=O)N[C@@H](C)C(=O)N[C@@H](C)C(=O)O", "note": "(H-AAAAARRARRRAAAAA-OH)", "Kd": 18000}]}]}
